These results are taken from patent publication US5480645A, “Hydroxyamines N-acyl derivatives having scavenger activity and useful in acute and chronic pathologies associated with peroxidation and inflammation phenomena” (LifeGroup S.p.A., priority 1992, dated 1996).

Data set [1] has as its system rat liver microsomes (membrane phospholipid peroxidation). Briefly: Antiperoxidative activity on rat liver microsomes, NADPH/Fe+2/ADP induced peroxidation (MDA formation). It counts as biochemical. The following applies: for MDA: control 42.5. As to the method:
Before the final resuspension mitochondria ape washed with 0.125M KCl containing 15 mM Hepes/10 mM tris at pH=7.4. Rat liver microsomes are prepared as described by Ernster and Nordenbrand (Ernster, Nordenbrand K. Methods Enzymol. 1967, 10:574-80). […]
b) 20 mM Hepes-Tris buffer pH=7.4, 0.5 mM cumene hydroperoxide in the presence or in the absence of the compounds to be tested. The trials after incubation are interrupted with 1 ml 35% TCA which 30 mg BHT and 1 ml 1% TBA (thiobarbituric acid) have been added to. Subsequently the incubation is carried out for 15' at 90° C. in order to allow the development of the coloured adduct.
(§1) A common oxidation product, malonyldialdehyde (MDA), to the two oxidant systems described in (a) and in (b), is measured.
The formed MDA is evaluated by spectrophotometry at 532 nm and calculated by using a molar extinction coefficient of 156.000 (Buege J. A. and Aust S. D., Methods Enzymol., 52, 302-310, 1978).
The tested compounds are solubilized in the culture medium up to the desired concentrations (see tables 1-3). […]
The antiperoxidase activity is measured as % of inhibition of malonyldialdehyde formation.
A general note: Microsomes from liver hold many membrane-bound enzymes, among them those of drug oxidation.

Data set [2] has the same test system. Briefly: Antiperoxidative activity on rat liver microsomes, cumene hydroperoxide induced peroxidation (MDA formation). It counts as biochemical. The note with it: for peroxidation inhibition / MDA: 0.5 mM cumene hydroperoxyde, Table 3; for MDA: control 12.8. As to the method: b) 20 mM Hepes-Tris buffer pH=7.4, 0.5 mM cumene hydroperoxide in the presence or in the absence of the compounds to be tested. […] Subsequently the incubation is carried out for 15' at 90° C. in order to allow the development of the coloured adduct.
as §1
The tested compounds are solubilized in the culture medium up to the desired concentrations (see tables 1-3).
As peroxidant agent 0.5 mM cumene hydroperoxyde is used. As oxidation index the formation of malonyldialdehyde (MDA) is measured (nmoles/mg protein).

Data set [3] relates to rat cerebellar granular cells. In words: Protection against glutamate neurotoxicity in rat cerebellar granular cell cultures. It is filed as cell-based. The procedure: Primary cerebellar granular cell cultures are prepared from 8 days old Sprague-Dawly rats. Neurons are grown on 35 mm plates for 7-8 days. […] Glial cells proliferation is prevented by cytosine arabinose-furanoside.
Cells are washed in Locke solution free from Mg^2+ then replated in the conditionned culture medium.
The solution is diluted serially up to 10, 20 and 50 μM. The compounds at the desired concentrations are added to the cells at 37 ° C.; after 15' 50 μM glutamate free from Mg^2+ is added For 15 minutes at 22 ° C.
The cells are then washed 3 times with Locke solution, then added to the original culture medium and maintained at 37 ° C. in 5 % CO2 for 24 hours.
The cellular survival is measured by using a fluorescence microscope.

The next data set concerns mast cells. In words: In vivo antidegranulating activity in rat mast cells (substance P induced). More on the design: species or system Sprague Dawley rats. The note with it: for inhibition % (mast cells degranulation induced by substance P): s.c. 20 mg/kg, substance P 10^-6 M in auricular pinna, substance P effect taken as 100% degranulation. As to the method: 1. In vivo antidegranulating activity in rat mast cells.
The pharmacological treatment is preceded (20 min. before) by the degranulating stimulus induced by P substance (10^-6 M) injected in the auricular pinna. After 20 minutes from the degranulating stimulus, the animals are sacrificed. Their tissues are then taken (auricular pavilion) for the morphological aspect analysis of the mast cells residing in the connective tissues after fixation and coloration with toluidine blue.
The inhibition level of the mast cells degranulation in the animal tissue treated with the tested compounds in comparison with the animals treated only with the degranulating agent is considered as the parameter of the biological activity.
*the inhibition percentage is calculated considering that the effect of
the substance P is maximum (100% of mast cells degranulation).

A further data set can be described thus: Solubility. It counts as physicochemical. The following applies: for solubility: organic solvent or mixture, read-out: solubility in org. solv.
The next data set relates to C6 glioma cells. In words: Protection against 5 mM glutamate cytotoxicity in glioma C6 cultures. The following applies: Rattus norvegicus, C6 glioma, 24 h, read-out: % Cell survival.
For data set [4], the system named is granular cerebellar cells. Briefly: Protection against 2 mM glutamate cytotoxicity in immature granular cerebellar cell cultures. The note with it: Mus musculus, 24 h, read-out: % Cellular survival.
Method: The tested compounds are solubilized in DMSO at a concentration of from 1 to 100 μM.
Setting [5] is: 10 μM, NADPH/Fe+2/ATP, Table 1-A.
[6] abbreviates: 20 μM, NADPH/Fe+2/ATP, Table 1-A.
Where [7] appears, read: in vitro, 10 to 50 μM dose/effect relationship for the test compound.

Where two headings read alike, the source gives them in different places. Where no end group is shown, it is not given here. A value given as a limit tells only on which side of the number the result lay.

Turning to `Cc1c(C)c2c(c(C)c1O)CC(CC(=O)NCCO)O2` (centres unmarked) [Example 1, 2-(2,3-dihydro-5-hydroxy-4,6,7-trimethylbenzofuran)-acetic acid 2 hydroxyethylamide], the peroxidation inhibition in data set [1] (setting [5]) is reported as 21%; in data set [1] (setting [6]), 49%; in data set [2] (20 μM), 47%; in data set [2] (50 μM), 80%. The MDA in data set [1] (setting [5]) is reported as 33.5 nmoles/mg prot; in data set [1] (setting [6]), 21.3 nmoles/mg prot; in data set [2] (20 μM), 6.84 nmoles/mg prot; in data set [2] (50 μM), 2.5 nmoles/mg prot. Moreover, the “effect compared with the corresponding acid (in words)” value in data set [1] (Tab. 1-A and 3 (NADPH/Fe+2/ADP and cumene peroxide)) was “consistently higher than that of the comparison product namely the corresponding acid”. Besides, the “inhibition of the peroxidation induced by NADPH/Fe+2/ADP (in words)” value in data set [1] (setting [7]) is “able to inhibit the peroxidation induced by NADPH/Fe^+2 /ADP (a)”. Further, in data set [2] (setting [7]), the “inhibition of the peroxidation induced by cumene peroxide (in words)” value was “able to inhibit the peroxidation induced by NADPH/Fe^+2 /ADP (a) and by cumene peroxide (b)”. Also, the viability at 10 µM in data set [3] (Rattus norvegicus, 24 h, 10 μM, against 50 μM glutamate, Table 4, control 100, read-out: cell survival) stood at 33%; in the data set with C6 glioma cells, 89%; in data set [4], 94%. Besides, in data set [3] (Rattus norvegicus, 24 h, 20 μM, against 50 μM glutamate, Table 4, control 100, read-out: cell survival), the viability at 20 µM worked out at 50%. Also, the viability at 50 µM in data set [3] (Rattus norvegicus, 24 h, 50 μM, against 50 μM glutamate, Table 4, control 100, read-out: cell survival) was found to be 85%. Also, the “protection against glutamate exogenous neurotoxicity (in words)” value in data set [3] (dose-effect relationship) was “able to protect against the glutamate exogenous neurotoxicity”. In addition, the “inhibition % (mast cells degranulation induced by substance P)” value in the data set with mast cells is 19%. In addition, in the data set “Solubility” (in ethanol, DMSO, chloroform), the solubility is over 10000 µg/mL. For the same compound, the water solubility entry in “Solubility” is given as “slightly soluble”. In addition, the viability at 1 µM in the data set on C6 glioma cells was 13%; in data set [4], 31%. Moreover, the viability at 3 µM in the data set with C6 glioma cells was found to be 88%; in data set [4], 40%.

As to `Cc1c(C)c2c(c(C)c1OC(=O)CCC(=O)NCCO)CCC(C)(CCCC(C)CCCC(C)CCCC(C)C)O2` [Example 2, D-α-tocopherol acid succinate 2-hydroxyethylamide], the peroxidation inhibition in data set [1] (40 μM, preincubation time 0 minutes, ADP/NADPH/Fe, Table 2) was found to be 1.40%; in data set [1] (40 μM, preincubation time 15 minutes, ADP/NADPH/Fe, Table 2), 17.30%; in data set [1] (40 μM, preincubation time 30 minutes, ADP/NADPH/Fe, Table 2), 29.50%; in data set [1] (40 μM, preincubation time 45 minutes, ADP/NADPH/Fe, Table 2), 37.90%; in data set [1] (40 μM, preincubation time 60 minutes, ADP/NADPH/Fe, Table 2) it was 40.90%. Also, in the data set on mast cells, the “inhibition % (mast cells degranulation induced by substance P)” value is reported as 38.5%. Besides, the solubility in “Solubility” (in ethanol and chloroform) was over 10000 µg/mL. For the same compound, the water solubility result in “Solubility” is reported as “slightly soluble”. Besides, in the data set on C6 glioma cells, the viability at 10 µM was found to be 10%. For the same compound, the viability at 30 µM in the data set with C6 glioma cells came to 80%.

Consider “substance P: degranulating stimulus injected in the auricular pinna (RPKPQQFFGLM; ends and bridges not checked; UniProt P20366 58-68, looked up) [reference compound]”, for which the mast cells degranulation in the data set on mast cells (induced by substance P, of the numbered mast cells) was 85-95%.

The solubility is the concentration that dissolves in the medium under given conditions.
